Data reported in PMC11033320, “Activation of p53 signaling and regression of breast and prostate carcinoma cells by spirooxindole-benzimidazole small molecules” (Frontiers in Pharmacology, 2024).

Columns and labels:
SR = assay: NCI anticancer screening, Leukemia SR; assay type: cell-based; settings: Homo sapiens, read-out: % Growth Inhibition (GI %)
Text: (§1) The compound has been processed according to standard method NCI-60 Human Tumor Cell Lines Screen for organic compound at development therapeutic program (DTP). Requests for access to this national resource can be submitted online at: […]

SNB-75 = assay: NCI anticancer screening, CNS Cancer SNB-75; assay type: cell-based; settings: Homo sapiens; SNB-75, 10 μM; read-out: % Growth Inhibition (GI %)
Text: as §1

HCT-116 = assay: NCI anticancer screening, Colon Cancer HCT-116; assay type: cell-based; settings: Homo sapiens; HCT-116, 10 μM; read-out: % Growth Inhibition (GI %)
Text: as §1

DU-145 = assay: NCI anticancer screening, DU-145; assay type: cell-based; settings: Homo sapiens; DU-145, 10 μM; read-out: % Growth Inhibition (GI %)
Text: as §1

M14 = assay: NCI anticancer screening, Melanoma M14; assay type: cell-based; settings: Homo sapiens; M14, 10 μM; read-out: % Growth Inhibition (GI %)
Text: as §1

786-0 = assay: NCI anticancer screening, Renal Cancer 786-0; assay type: cell-based; settings: Homo sapiens; 786-0, 10 μM; read-out: % Growth Inhibition (GI %)
Text: as §1

OVCAR-5 = assay: NCI anticancer screening, Ovarian Cancer OVCAR-5; assay type: cell-based; settings: Homo sapiens; OVCAR-5, 10 μM; read-out: % Growth Inhibition (GI %)
Text: as §1

BT-549 = assay: NCI anticancer screening, Breast Cancer BT-549; assay type: cell-based; settings: Homo sapiens; BT-549, 10 μM; read-out: % Growth Inhibition (GI %)
Text: as §1

K-562 = assay: NCI anticancer screening, Leukemia K-562; assay type: cell-based; settings: Homo sapiens, K562; K-562, 10 μM; read-out: % Growth Inhibition (GI %)
Text: as §1

PC-3 cells = assay: MTT assay anticancer activity, PC-3; assay type: cell-based; settings: Homo sapiens, PC-3, 5 µM, mean ± SEM, read-out: growth inhibition percentage of PC-3
Text: MTT method was done as described above.

SK-MEL-2 = assay: NCI anticancer screening, Melanoma SK-MEL-2; assay type: cell-based; settings: Homo sapiens; SK-MEL-2, 10 μM; read-out: % Growth Inhibition (GI %)
Text: as §1

MOLT-4 = assay: NCI anticancer screening, Leukemia MOLT-4; assay type: cell-based; settings: Homo sapiens; MOLT-4, 10 μM; read-out: % Growth Inhibition (GI %)
Text: as §1

OVCAR-8 = assay: NCI anticancer screening, Ovarian Cancer OVCAR-8; assay type: cell-based; settings: Homo sapiens; OVCAR-8, 10 μM; read-out: % Growth Inhibition (GI %)
Text: as §1

SK-MEL-28 = assay: NCI anticancer screening, Melanoma SK-MEL-28; assay type: cell-based; settings: Homo sapiens; SK-MEL-28, 10 μM; read-out: % Growth Inhibition (GI %)
Text: as §1

CAKI-1 = assay: NCI anticancer screening, Renal Cancer CAKI-1; assay type: cell-based; settings: Homo sapiens; CAKI-1, 10 μM; read-out: % Growth Inhibition (GI %)
Text: as §1

TK-10 = assay: NCI anticancer screening, Renal Cancer TK-10; assay type: cell-based; settings: Homo sapiens; TK-10, 10 μM; read-out: % Growth Inhibition (GI %)
Text: as §1

SF-268 = assay: NCI anticancer screening, CNS Cancer SF-268; assay type: cell-based; settings: Homo sapiens; SF-268, 10 μM; read-out: % Growth Inhibition (GI %)
Text: as §1

OVCAR-4 = assay: NCI anticancer screening, Ovarian Cancer OVCAR-4; assay type: cell-based; settings: Homo sapiens; OVCAR-4, 10 μM; read-out: % Growth Inhibition (GI %)
Text: as §1

UO-31 = assay: NCI anticancer screening, Renal Cancer UO-31; assay type: cell-based; settings: Homo sapiens; UO-31, 10 μM; read-out: % Growth Inhibition (GI %)
Text: as §1

HCC-2998 = assay: NCI anticancer screening, Colon Cancer HCC-2998; assay type: cell-based; settings: Homo sapiens; HCC-2998, 10 μM; read-out: % Growth Inhibition (GI %)
Text: as §1

UACC-257 = assay: NCI anticancer screening, Melanoma UACC-257; assay type: cell-based; settings: Homo sapiens; UACC-257, 10 μM; read-out: % Growth Inhibition (GI %)
Text: as §1

RPMI-8226 = assay: NCI anticancer screening, Leukemia RPMI-8226; assay type: cell-based; settings: Homo sapiens; RPMI-8226, 10 μM; read-out: % Growth Inhibition (GI %)
Text: as §1

CCRF-CEM = assay: NCI anticancer screening, Leukemia CCRF-CEM; assay type: cell-based; settings: Homo sapiens, read-out: % Growth Inhibition (GI %)
Text: as §1

SW-620 = assay: NCI anticancer screening, Colon Cancer SW-620; assay type: cell-based; settings: Homo sapiens; SW-620, 10 μM; read-out: % Growth Inhibition (GI %)
Text: as §1

NCI-H460 = assay: NCI anticancer screening, Non-Small Cell Lung Cancer NCI-H460; assay type: cell-based; settings: Homo sapiens; NCI-H460, 10 μM; read-out: % Growth Inhibition (GI %)
Text: as §1

IGROV1 = assay: NCI anticancer screening, Ovarian Cancer IGROV1; assay type: cell-based; settings: Homo sapiens, IGROV-1; IGROV1, 10 μM; read-out: % Growth Inhibition (GI %)
Text: as §1

ACHN = assay: NCI anticancer screening, Renal Cancer ACHN; assay type: cell-based; settings: Homo sapiens, read-out: % Growth Inhibition (GI %)
Text: as §1

MDA-MB-435 = assay: NCI anticancer screening, Melanoma MDA-MB-435; assay type: cell-based; settings: Homo sapiens; MDA-MB-435, 10 μM; read-out: % Growth Inhibition (GI %)
Text: as §1

EKVX = assay: NCI anticancer screening, Non-Small Cell Lung Cancer EKVX; assay type: cell-based; settings: Homo sapiens, read-out: % Growth Inhibition (GI %)
Text: as §1

RXF 393 = assay: NCI anticancer screening, Renal Cancer RXF 393; assay type: cell-based; settings: Homo sapiens; RXF 393, 10 μM; read-out: % Growth Inhibition (GI %)
Text: as §1

SNB-19 = assay: NCI anticancer screening, CNS Cancer SNB-19; assay type: cell-based; settings: Homo sapiens; SNB-19, 10 μM; read-out: % Growth Inhibition (GI %)
Text: as §1

HOP-92 = assay: NCI anticancer screening, Non-Small Cell Lung Cancer HOP-92; assay type: cell-based; settings: Homo sapiens; HOP-92, 10 μM; read-out: % Growth Inhibition (GI %)
Text: as §1

MALME-3M = assay: NCI anticancer screening, Melanoma MALME-3M; assay type: cell-based; settings: Homo sapiens, read-out: % Growth Inhibition (GI %)
Text: as §1

NCI/ADR-RES = assay: NCI anticancer screening, Ovarian Cancer NCI/ADR-RES; assay type: cell-based; settings: Homo sapiens, read-out: % Growth Inhibition (GI %)
Text: as §1

MDA-MB 231 cells = settings: for inhibition: 5 µM
HOP-62 = assay: NCI anticancer screening, Non-Small Cell Lung Cancer HOP-62; assay type: cell-based; settings: Homo sapiens; HOP-62, 10 μM; read-out: % Growth Inhibition (GI %)
Text: as §1

| Compound | inhibition at 10 µM (SR) [%] | inhibition at 10 µM (SNB-75) [%] | inhibition at 10 µM (HCT-116) [%] | inhibition at 10 µM (DU-145) [%] | inhibition at 10 µM (M14) [%] | inhibition at 10 µM (786-0) [%] | inhibition at 10 µM (OVCAR-5) [%] | inhibition at 10 µM (BT-549) [%] | inhibition at 10 µM (K-562) [%] | inhibition at 5 µM (PC-3 cells) [%] | inhibition at 10 µM (SK-MEL-2) [%] | inhibition at 10 µM (MOLT-4) [%] | inhibition at 10 µM (OVCAR-8) [%] | inhibition at 10 µM (SK-MEL-28) [%] | inhibition at 10 µM (CAKI-1) [%] | inhibition at 10 µM (TK-10) [%] | inhibition at 10 µM (SF-268) [%] | inhibition at 10 µM (OVCAR-4) [%] | inhibition at 10 µM (UO-31) [%] | inhibition at 10 µM (HCC-2998) [%] | other results |
| --- | --- | --- | --- | --- | --- | --- | --- | --- | --- | --- | --- | --- | --- | --- | --- | --- | --- | --- | --- | --- | --- |
| O=C(c1nc2ccccc2[nH]1)[C@H]1[C@H](c2cccc(O)c2)C2CSCN2[C@]12C(=O)Nc1ccccc12 (stereo partly drawn) [Compound 6h, (3S,6′R)-6'-(1H-Benzo [d]imidazole-2-carbonyl)-7'-(3-hydroxyphenyl)-3′,6′,7′,7a′-tetrahydro-1′H-spiro [indoline-3.5′-pyrrolo [1,2-c]thiazol]-2-one] | 79.1 | 74.5 | 89 | 105 | 97.3 | 101 | 92.9 | 107 | 92.5 | 40.4 ± 1.25 | 102 | 91.2 | 97 | 95.3 | 84.1 | 113 | 88.5 | 82.1 | 60.6 | 101 | inhibition at 10 µM (UACC-257): 91.9%; inhibition at 10 µM (RPMI-8226): 82.4%; inhibition at 10 µM (CCRF-CEM): 108%; inhibition at 10 µM (SW-620): 91.8%; inhibition at 10 µM (NCI-H460): 94.8%; inhibition at 10 µM (IGROV1): 87.9%; inhibition at 10 µM (ACHN): 92.8%; inhibition at 10 µM (MDA-MB-435): 93.5%; inhibition at 10 µM (EKVX): 96.6%; inhibition at 10 µM (RXF 393): 104%; inhibition at 10 µM (SNB-19): 97.8%; inhibition at 10 µM (HOP-92): 98.3%; inhibition at 10 µM (MALME-3M): 96.8%; inhibition at 10 µM (NCI/ADR-RES): 97.1%; IC50 (MDA-MB 231 cells): 5.44 ± 0.167 µM; inhibition (MDA-MB 231 cells): 40.2%; inhibition at 10 µM (HOP-62): 96.4% |
| O=C(c1nc2ccccc2[nH]1)[C@H]1[C@H](c2ccc(Cl)cc2Cl)C2CSCN2[C@]12C(=O)Nc1ccccc12 (stereo partly drawn) [Compound 6g, (3S,6′R)-6'-(1H-Benzo [d]imidazole-2-carbonyl)-7'-(2,4-dichlorophenyl)-3′,6′,7′,7a′-tetrahydro-1′H-spiro [indoline-3.5′-pyrrolo [1,2-c]thiazol]-2-one] | 45.8 | 59.7 | 56.4 | 86.9 | 66.8 | 85.9 | 86.1 | 92.3 | 65.6 | 54.5 ± 1.56 | 84.4 | 43 | 77 | 78.3 | 36.9 | 107 | 47 | 57.6 | 39.7 | 70.3 | inhibition at 10 µM (UACC-257): 74.4%; inhibition at 10 µM (RPMI-8226): 42.5%; inhibition at 10 µM (CCRF-CEM): 60.1%; inhibition at 10 µM (SW-620): 72.9%; inhibition at 10 µM (NCI-H460): 55.5%; inhibition at 10 µM (IGROV1): 54.8%; inhibition at 10 µM (ACHN): 63.7%; inhibition at 10 µM (MDA-MB-435): 56%; inhibition at 10 µM (EKVX): 63.5%; inhibition at 10 µM (RXF 393): 40.7%; inhibition at 10 µM (SNB-19): 70.1%; inhibition at 10 µM (HOP-92): 77.6%; inhibition at 10 µM (MALME-3M): 86.2%; inhibition at 10 µM (NCI/ADR-RES): 68.4%; IC50 (MDA-MB 231 cells): 6.22 µM; inhibition (MDA-MB 231 cells): 56.7 ± 0.87%; inhibition at 10 µM (HOP-62): 80.3% |
